Reference: US6596700B2, “Methods of treating hepatitis delta virus infection with β-L-2'-deoxy-nucleosides” (priority 2000, dated 2003)
Read-outs that look alike come from different tables or passages of the source.

Assays:
[1] = system: HDV; details: cited from earlier work
[2] = system: HDV; details: chronically infected animals; cited from earlier work
[3] = system: hepatitis B surface antigen; details: in vivo; cited from earlier work
[4] = system: HDV; details: patients with chronic delta hepatitis; cited from earlier work
[5] = system: HDV; details: in vivo, cited from earlier work
[6] = system: BFU-E; assay: human bone marrow clonogenic assay, BFU-E; format: cell-based
[7] = system: hepatitis B virus; assay: anti-hepatitis B virus activity in transfected Hep G-2 (2.2.15) cells; format: cell-based
[8] = system: woodchuck hepatitis virus (WHV); assay: woodchuck chronic hepatitis model, WHV DNA in serum; format: in vivo, woodchucks (Marmota monax); details: for activity compared with 3TC (lamivudine): 3TC 10 mg/kg/day; for ng WHV-DNA per ml serum: orally once a day at 10 mg/kg; for activity in the in vivo model / level to which viral load is reduced: woodchucks chronically infected with WHV
Experimental: The efficacy of L-dA, L-dT and L-dC against hepadnavirus infection in woodchucks (Marmota monax) chronically infected with woodchuck hepatitis virus (WHV) was determined. This animal model of HBV infection is widely accepted and has proven to be useful for the evaluation of antiviral agents directed against HBV. There were 3 animals per drug group, and 4 animals per control. In group 1, the animals received a vehicle control; group 2 received lamivudine (3TC) (10 mg/kg/day); groups 3-6 received L-dA (0.01, 0.1, 1.0, 10 mg/kg/day, respectively); groups 7-10 received L-dT (0.01, 0.1, 1.0, 10 mg/kg/day, respectively); and groups 11-14 received L-dC (0.01, 0.1, 1.0, 10 mg/kg/day). […] Assessment of the activity and toxicity was based on the reduction of WHV DNA in serum: dot-blot, quantative PCR.

[9] = system: Hep G-2 (2.2.15) cells; assay: cytotoxicity in Hep G-2 (2.2.15) cells; details: read-out: Cytotoxicity IC50
[10] = system: CFU-GM; assay: human bone marrow clonogenic assay, CFU-GM; details: effect on cell growth
[11] = system: hepatitis B; details: for IC50: single agent, hepatitis B replication in 2.2.15 cells
[12] = system: CFU-GM
[13] = extracellular DNA, read-out: HBV virions EC50
[14] = replicative intermediates (intracellular DNA), read-out: HBV Ri EC50
[15] = day 0, limit of detection 1 ng/ml

Structure (SMILES) | EC50 [7, 13] [nM] | EC50 [7, 14] [nM] | activity compared with 3TC (lamivudine) [8] | ng WHV-DNA per ml serum [8, 15] [ng/mL] | ng WHV-DNA per ml serum ([8]; day 1) [ng/mL] | ng WHV-DNA per ml serum ([8]; day 3) [ng/mL] | ng WHV-DNA per ml serum ([8]; day 7) [ng/mL] | ng WHV-DNA per ml serum ([8]; day 14) [ng/mL] | activity in the in vivo model [8] | level to which viral load is reduced [8] | IC50 [9] [nM] | BFU-E [6] [µM] | other results
Nc1nc2c(ncn2COCCO)c(=O)[nH]1 [Acyclovir] | – | – | – | – | – | – | – | – | – | – | – | – | HDV replication ([1]; in vitro): enhances HDV replication in vitro
Cc1cn([C@H]2O[C@@H](CO)[C@H](O)[C@H]2F)c(=O)[nH]c1=O [L-FMAU, 2′-fluoro-5-methyl-beta-L-arabinofuranosyluridine] | – | – | – | – | – | – | – | – | – | – | – | – | inhibition of HDV [2]: potent inhibitor of HDV; level of hepatitis B surface antigen [3]: significantly reduces the level of hepatitis B surface antigen
Nc1ccn([C@@H]2CS[C@H](CO)O2)c(=O)n1 [Lamuvidine, β-L-2′,3′-dideoxy-3′-thiacytidine] | – | – | – | – | – | – | – | – | – | – | – | – | disease activity and HDV-RNA levels [4]: does not improve disease activity or lower HDV-RNA levels
NC(=O)c1ncn([C@@H]2O[C@H](CO)[C@@H](O)[C@H]2O)n1 [Ribavirin] | – | – | – | – | – | – | – | – | – | – | – | – | side-effects [5]: severe side-effects; virological or biochemical parameters [5]: did not significantly affect virological or biochemical parameters
Cc1ccc(C(=O)Nc2ccc(S(=O)(=O)O)c3cc(S(=O)(=O)O)cc(S(=O)(=O)O)c23)cc1NC(=O)c1cccc(NC(=O)Nc2cccc(C(=O)Nc3cc(C(=O)Nc4ccc(S(=O)(=O)O)c5cc(S(=O)(=O)O)cc(S(=O)(=O)O)c45)ccc3C)c2)c1 [suramin] | – | – | – | – | – | – | – | – | – | – | – | – | entry of the virion into hepatocytes [1]: blocks the entry of the virion into hepatocytes; toxicity ([5]; human): too toxic to be acceptable for long term use in humans
Nc1ncnc2c1ncn2[C@@H]1C[C@@H](O)[C@H](CO)O1 [β-L-dA, 2′-Deoxy-β-L-adenosine] | 100 | 100 | more active than 3TC | 436 | 369 | 140 | 102 | 74 | highly active | nearly undetectable | > 200000 | – | BFU-E ([6]; effect on cell growth, human bone marrow clonogenic assay): >10 µM; CFU-GM [10]: >10 µM; % Inhibition ([11]; single agent 0.005 μM): 1%; % Inhibition ([11]; single agent 0.05 μM): 24%; % Inhibition ([11]; single agent 0.5 μM): 90%; IC50 [11]: 90 nM
Nc1ccn([C@@H]2C[C@@H](O)[C@H](CO)O2)c(=O)n1 [β-L-dC, 2′-Deoxy-β-L-cytidine] | 50 | 50 | more active than 3TC | 426 | 123 | 62 | 46 | 20 | highly active | nearly undetectable | > 200000 | >10 | CFU-GM [10]: >10 µM; % Inhibition ([11]; single agent 0.005 μM): 10%; % Inhibition ([11]; single agent 0.05 μM): 40%; % Inhibition ([11]; single agent 0.5 μM): 95%; IC50 [11]: 60 nM
O=c1[nH]cnc2c1ncn2[C@@H]1C[C@@H](O)[C@H](CO)O1 [β-L-dI, 2′-deoxy-β-L-inosine] | 1000 | 1000 | – | – | – | – | – | – | – | – | > 200000 | – | –
Cc1cn([C@@H]2C[C@@H](O)[C@H](CO)O2)c(=O)[nH]c1=O [β-L-dT, 2′-Deoxy-β-L-thymidine] | 50 | 50 | more active than 3TC | 423 | 45 | 14 | 6 | 1 | highly active | undetectable | > 200000 | >10 | viral rebound after withdrawal ([8]; post-treatment): viral rebound is not detected for at least two weeks; CFU-GM [12]: >10 µM
O=c1ccn([C@@H]2C[C@@H](O)[C@H](CO)O2)c(=O)[nH]1 [β-L-dU, β-L-2′-deoxyuridine] | 5000 | 5000 | – | – | – | – | – | – | – | – | > 200000 | >10 | CFU-GM [12]: >10 µM
